Results on 12 compounds are retold here after patent publication US20240292835A1, “Methods, Compositions and Devices for Insect Control” (Agriculture Victoria Services PTY LTD, priority 2020, published 2024).

Holding throughout (type): in vivo, Carpophilus truncatus
One assay concerns C. truncatus antennae. As to the kind of experiment: GC-EAD (gas chromatography coupled with electroantennography) screening of odour and pheromone septa extracts. The conditions noted are these: for EAD: compounds in solvent extracts of commercial pheromone septa, key not given, antennae responded to all but one. The protocol: Pheromone compounds and other biologically active compounds present in odour extracts were screened by Gas Chromatography coupled with electroantennography (GC-EAD). The same GC setup used for chemical analysis was used in conjunction with an electroantennograph (Ockenfels Syntech GmbH, Germany). An apolar column SLB-5 MS (30 m×0.32 mm×0.25 μm) used as analytical column was connected to a CFT splitter plate (Capillary Flow Technology, Agilent). A constant flow of helium (1 mL/min) used as carrier and make-up gas was maintained towards the mass spectrometer. […] The EAD restrictor was fitted in a 50 cm transfer line (Ockenfels Syntech GmbH, Germany) heated at 250° C. allowing only the last 2 mm segment of the restrictor to protrude inside a glass mixing tube (3.8 mm inner diameter) positioned above the insect preparation and in which a 29 cm/s stream of purified air was applied. The described setup allowed relatively well-synced signals between all three detectors. One-week-old beetles were anesthetized on ice and immobilised in a micropipette tip with a cotton plug, with the upper part of the abdomen exposed. A sharp glass electrode filled with an electrolyte (0.1 N KCl, 3% PVP) was inserted into the head of the beetle (reference) while a similar electrode was positioned on the disc-shaped distal end of the antenna using a micromanipulator (FIG. 1). The antennal signal was amplified and recorded using an IDAC-4 (Ockenfels Syntech, Germany). When a good contact was obtained (checked via a 1% isopentyl acetate “puff” stimulation), an aliquot of volatile extract was injected in the GC and the sensitivity or lack thereof to individual compounds was determined by the overlay of MS/FID and EAD signals. Beetle odour extracts as well as extracts from commercial synthetic Carpophilus pheromones were screened by coupled gas chromatography-electroantennographic detection (GC-EAD) to test for beetle sensitivity to the putative pheromone and those of other Carpophilus species (FIG. 9).

Assay [1] concerns C. truncatus male and female adult beetles. As to the kind of experiment: Y-tube olfactometer bioassays with isolated pheromone fractions. The note with it: 20 μl isolated fraction vs hexane control, diet odour in both arms. As for the experimental part:
Beetle orientation to different test odours was tested in a Y-tube glass olfactometer (ID: 2 cm, 10 cm stem and 7.5 cm choice arm length, 70° angle between arms) placed on a thick white paper sheet. All the experiments were conducted in a Controlled Environment Room at 28° C. The olfactometer was placed at a 30° angle to take advantage of beetles' natural negative geotaxis. Both arms of the Y-tube were connected via glass connectors or PTFE tubing to air-tight glass chambers in which different odours were applied. Activated charcoal-filtered air was circulated through the glass chambers entraining test odours to the choice arms of the Y-tube at 400 mL/min. The olfactometer was illuminated from above by dimmable fluorescent light tubes (Fititron, Weiss Gallenkamp, UK) covered by a sheet of UV-permitting diffusing white screen paper (Rosco 216, Germany). Light intensity at both ends of the two choice arms was measured and adjusted to 990 lux using a digital lux meter. Beetles were released individually in the olfactometer's main stem and observed for 10 min. Individuals that crossed the middle of either test arms (4 cm inside the arm; empirically designated as a non-return point) were considered to have made a choice. […] Preferences for male or female odours were assessed in a similar way by testing the beetle's orientation when simultaneous exposed to male and female beetle-infested diet. […]

Assay [2] relates to C. truncatus. As to the kind of experiment: Laboratory dual-choice cage bioassays of co-attractant solutions. The note with it: Experiment #2: solution lacking one component vs full commercial co-attractant (CL). The protocol:
Cage bioassays were developed for the rapid screening of beetle attraction to prototype co-attractant solutions. Adult beetles were separated in groups of hundred individuals (mixed sex) and starved for 48 h in (30 cm×30 cm×30 cm) mesh cages in Controlled Environment rooms (29° C., 60% RH, 16L:8D Photoperiod). Two plastic traps made from 30 mL plastic cups comprising four 5-mm holes equidistantly distributed along their circumference and a single hole in the lid were filled with 20 mL of freshly prepared test co-attractant solutions (FIG. 2) and placed inside the mesh cage approximately 15-20 cm apart. Beetles were allowed 48 h to choose between the two solutions. At the end of the experiments, traps were collected in plastic containers and beetles inside each treatment cups (alive or drowned) as well as non-selecting individuals were counted. Experiments were replicated a minimum of ten times for each prototype solution. An attraction index, used to determine the degree of attraction or deterrence of the test solution in comparison to the control, was calculated as follows: (n beetles in test solution)−(n beetles in control)/total n beetles. Attraction indices returned values ranging between −1 (extreme repellence) and +1 (extreme attraction); 0 corresponding to the absence of preference for either solutions. Deviation of the indices from zero was analysed using two tailed t-tests. Cage bioassays were used to test the attraction of C. truncatus to the commercial co-attractant (co-attractant vs water) and to screen the influence of individual constituents of the commercial Carpophilus co-attractant on C. truncatus attraction. The effect of different constituents was assessed by testing the co-attractant (control) against test co-attractant solutions in which one constituent was excluded.
In a first cage experiment (Experiment #1, table 4), the attraction of C. truncatus attraction to the commercial co-attractant (CL) was verified using water as a control treatment (FIG. 14).
In a second experiment (Experiment #2, table 4), the influence of individual components of the commercial co-attractant on C. truncatus was assessed by testing beetle's preferences between test co-attractant solutions in which a single compound was missing against the full formulation.

In assay [3] the test system is C. truncatus. The assay can be described thus: Field trials in almond orchards, black funnel traps. The note with it: field trial #3a; simplified co-attractant; FIG. 19. The protocol: All field trials were conducted in commercial almond orchards located in Mildura area (Victoria, Australia) between 2018 and 2020. Treatments were tested in black funnel traps (supplied by Bugs for Bugs; https://bugsforbugs.com.au/product/Carpophilus-[…]/) placed at ground level and secured using metal fence […] deeply anchored in the soil (FIG. 3). This differs from the conventional use of these traps in stone fruits where traps are suspended on […] 1.5 m height and derives from pilot experiments showing that more C. truncatus are caught when traps are placed on the ground (FIG. 5). An insecticidal strip (dichlorovos) was placed inside the traps to kill captured beetles. […] Beetles responses to different odours in Y-tube olfactometer experiments were analysed using binomial tests, assuming a distribution ratio of 1:1 between the two choice arms as the null-hypothesis. […] The deviation from zero of the attraction indices calculated in cage bioassays was analysed using paired t-tests. Field trial data were analysed as the mean weekly catches per trap over the period of the trials (between 2-6 weeks depending on beetle population density) using generalized linear mixed model fitted with a negative binomial distribution. […]

As to `C/C=C/C(=C/C(C)=C/C(C)=C/C)CC` [Pheromone 1, (2E,4E,6E,8E)-7-Ethyl-3,5-dimethyl-2,4,6,8-decatetraene], the EAD result in the assay on C. truncatus antennae is reported as “✓”. The “attraction in Y-tube olfactometer” value in assay [1] was “more attractive than pheromone 2”.

In the case of `C/C=C(C)/C=C(C)/C=C(C)/C=C/CC` [Pheromone 2, (2E,4E,6E,8E)-3,5,7-trimethyl-2,4,6,8-undecatetraene], the “GC-EAD responses of C. truncatus males and females” value in the assay on C. truncatus antennae (beetle odour extracts) is “strong and consistent GC-EAD responses”. Moreover, the EAD entry in the assay with C. truncatus antennae is “✓”. For the same compound, the “attraction in Y-tube olfactometer” value in assay [1] is listed as “comparable level of attraction”.

For `CCO` [ethanol], in the assay with C. truncatus [2], the “effect of individual component of commercial co-attractant on C. truncatus” value (“effect” below) was “main attractants”.

Turning to `C/C=C(C)/C=C(/C=C/CC)CC` [(2E,4E,6E)-5-ethyl-3-methyl-2,4,6-nonatriene], the EAD result with C. truncatus antennae is given as “✓”.

Regarding `CC(C)CO` [isobutyl alcohol], the “effect” value with C. truncatus [2] was “no observable effect”.

For the compound `C/C=C(C)/C=C(C)/C=C(/C=C/CC)CC` [(2E,4E,6E,8E)-7-ethyl-3,5-dimethyl-2,4,6,8-undecatetraene], the EAD entry with C. truncatus antennae is on record as “✓”.

For the compound `C/C=C/C(C)=C/C(C)=C/C(C)=C/C` [(2E,4E,6E,8E)-3,5,7-Trimethyl-2,4,6,8-decatetraene], the EAD entry in the assay on C. truncatus antennae is “✓”.

Turning to `CC=O` [acetaldehyde], the “effect” value with C. truncatus [2] is “deterrent effect”.

In the case of `CCC(C)CO` (stereo not shown) [2-methylbutanol], the “effect” value with C. truncatus [2] was “deterrent effect”.

Regarding `CCOC(C)=O` [ethyl acetate], the “effect” value in the assay on C. truncatus [2] is on record as “deterrent effect”.

Regarding `CC(C)CCO` [isopentyl alcohol], the “effect” value in the assay on C. truncatus [2] is “main attractants”. The “C. truncatus attraction at higher concentrations of isopentyl alcohol” value in the assay on C. truncatus [3] is on record as “significantly increase”.

Regarding `CC/C=C/C(=C/C(C)=C/CC)CC` [(3E,5E,7E)-6-ethyl-4-methyl-3,5,7-decatriene], the EAD entry with C. truncatus antennae is “✓”.
